The nature of series [1]: Starch aging inhibiting effect, enzyme assay 1 and 2 (β-amylase degradation of corn starch gel). Here is the method:
After the individual test samples were mixed into corn starch gel and left to stand at low temperature for 96 hours, the aging level was evaluated via a degradation experiment using β-amylase. The method described below is an evaluation scheme that is an improvement over the BAP method (K. Kainuma, et al, Journal of the Japanese Society of Starch Science 1981, 28, 235.) and only uses β-amylase.
The 4-trehalosamine (4TA) obtained in production example 10, and trehalose (TRH), sucrose (SCR), and glycerol (hereinafter, sometimes referred to as “GOL”) were each dissolved in water to a final concentration of 10% (w/w), thus preparing aqueous solutions. […]
Quantification (absorbance measurement) of enzyme reaction and sugar were performed for the 24-hour, the 48-hour, or the 96-hour sample in a similar manner to the quantification (absorbance measurement) of enzyme reaction and sugar for the 0-hour sample except that the measurement sample was changed to the 24-hour sample, the 48-hour sample, or the 96-hour sample in the quantification (absorbance measurement) of enzyme reaction and sugar for the 0-hour sample. […]

The nature of series [2]: pH buffer effect (pH change on addition of HCl or NaOH). Type of series: physicochemical. Here is the method: Using the purified product of 4-trehalosamine obtained in the <Purification process> of production example 10, the functionality of 4-trehalosamine as buffer reagent was determined in the following manner.
A change in pH while 50 μL to 100 μL of 1 M hydrochloric acid (HCl) or 1 M sodium hydroxide (NaOH) was added to 50 mL of aqueous solution of 10 mM 4-trehalosamine (production example 10), 50 mL of aqueous solution of 10 mM trehalose, 50 mL of 10 mM tris, 50 mL of aqueous solution of 10 mM MES (2-(N-morpholino) ethanesulfonic acid), or 50 mL of aqueous solution of 10 mM HEPES (4-(2-hydroxyethyl)-1-piperazinylethane sulfonic acid) was measured with a pH meter (LAQUA F-51, manufactured by HORIBA, Ltd.).

Each structure is given as a SMILES string.

Take `N[C@H]1[C@H](O)[C@@H](O)[C@@H](O[C@H]2O[C@H](CO)[C@@H](O)[C@H](O)[C@H]2O)O[C@@H]1CO` [4-trehalosamine]: the “β-amylase degradation rate (starch aging inhibiting effect)” value in series [1] (final concentration 5% to 15%, 96 hours) was “maintained β-amylase degradation rate at 96 hours significantly high compared to the other gels”. Further, the “rate of degradation by β-amylase (starch aging inhibiting effect)” value in series [1] (test sample final concentration 10% (w/w), 6° C., 24 to 96 hours) was “significantly high rate of degradation by β-amylase at and after 24 hours compared to the other gels”. The pH buffer effect entry in series [2] (10 mM aqueous solution, 1 M HCl or 1 M NaOH added) was “strong pH buffer effect comparable that of tris”. The pKa in series [2] (aqueous solution, estimated from titration) is 6.99.
